Data published in US20220213126A1, “SMALL MOLECULE AUTOPHAGY INDUCERS FOR THE TREATMENT OF CANCER AND NEURODEGENERATIVE DISEASES” (John Wayne Cancer Institute, priority 2019, published 2022).
“And” between values parts separate entries of the source, which are not always exact repeats. Equal entries are not always repeated.

Legend:
[1] = Stability in simulated intestinal fluid; type: physicochemical
[2] = Mouse brain homogenate binding (in vitro binding study); type: in vitro ADME
Experimental: Free drug fraction in brain and plasma compartment was determined in vitro (Table 7). Brain to plasma (B/P) ratio was also determined in vivo (Table 8).

[3] = tested on: ULK1; assay: Western blot of autophagy proteins in MDA-MB-231 cells; type: cell-based; settings: 10 μM, MDA-MB-231, different time points
Experimental: FIG. 6 is a Western blot of autophagy proteins in TNBC cells treated with vehicle (control), VMY-BC-1, or Rapamycin. Western blot is shown for p-ULK1, LC3 A/B, and cleaved PARP.
To identify the functional target of VMY-BC-1, preliminary cell viability assays were carried out using siRNA to knock down each of the 10 identified binding proteins. […] Considering that that low ULK1 expression is associated with TNBC disease progression (Tang et al., Breast Cancer Res. Treat. 134:549-560, 2012) and autophagy controls the level of various DNA repair and checkpoint proteins in the DNA damage response pathway (Czarny et al., Int. J. Mol. Sci. 16:2641-2662, 2015; Gomes et al., Int. J. Mol. Sci. 18:2351, 2017), ULK1 activity in response to VMY-BC-1 was investigated. Protein extracts were made from MDA-MB-231 cells treated with vehicle control, VMY-BC-1 (10 μM), and Rapamycin (200 nM) at different time points.

[4] = tested on: MDA-MB-231; assay: TMT quantitative proteomics with Ingenuity Pathway Analysis; type: cell-based; settings: 10 μM
Experimental: A global quantitative proteomics approach using multiplexed tandem mass tagged (TMT) isotope labeling technology and shotgun mass spectrometry (Hung et al., Anal. Chem. 84:161-170, 2012) (FIG. 3) was used to quantitate approximately 5,400 proteins. MDA-MB-231 cells were treated with vehicle control (DMSO) or 10 μM VMY-BC-1 for 4 time points. Equal amounts of protein from cell lysates were trypsin digested (Step 1) and labelled with TMT 10-plex reagent (Step 2).

[5] = tested on: MDA-MB-231 tumor xenografts; assay: MDA-MB-231 tumor xenograft efficacy; type: in vivo, athymic nude mice
Experimental: To evaluate the anti-tumor efficacy of VMY-BC-1 in vivo, MDA-MB-231 tumor xenografts were established in the flanks of athymic nude mice. 5×10^6 MDA-MB-231 TNBC cells in 1×HBSS with 1:1 Matrigel® were implanted subcutaneously in the flank of 5-6 week old female athymic nude mice (CrTac:Ncr-Foxn1^nu; Taconic Biosciences, India). Mice (n=8) were treated with vehicle (2% (v/v) Tween® 80+98% (v/v) of 0.5% (w/v) hydroxypropyl methylcellulose (HPMC) in water) or VMY-BC-1 75 mg/kg PO daily for 14 days. The dose volume was 10 mL/kg. Tumor volume, tumor growth inhibition (TGI), body weight, and clinical signs were monitored. Tumor growth was measured twice weekly using a digital Vernier caliper. Tumor volume was calculated as [length×width^2]/2. TGI was calculated as:
% TGI={(TV ControlFinal−TV ControlInitial)−(TV TreatedFinal−TV TreatedInitial)}×100
At the end of the study, brain and plasma samples were collected for drug concentration. Tumor tissues were collected for immunohistochemistry, Western blot, and bioanalysis. Statistical analysis of tumor growth in the control and treated groups was performed by Student's T test using GraphPad Prism (Ver. 5.03).

[6] = Pharmacokinetics of BC-2 and BC-3 in mouse plasma and brain; type: in vivo, mice; settings: mouse, in vivo, po, 5 mg/kg
Experimental: Pharmacokinetics were assessed in mice administered a single oral dose of 5 mg/kg of the indicated compound (Tables 9 and 10).

[7] = molecular target: T1, CYP2C9 (Homo sapiens, UniProt P11712); assay: CYP inhibition in pooled human liver microsomes; type: in vitro ADME
T1 construct: from tissue; host or cells: pooled human liver microsomes
T1 sequence (P11712 whole entry): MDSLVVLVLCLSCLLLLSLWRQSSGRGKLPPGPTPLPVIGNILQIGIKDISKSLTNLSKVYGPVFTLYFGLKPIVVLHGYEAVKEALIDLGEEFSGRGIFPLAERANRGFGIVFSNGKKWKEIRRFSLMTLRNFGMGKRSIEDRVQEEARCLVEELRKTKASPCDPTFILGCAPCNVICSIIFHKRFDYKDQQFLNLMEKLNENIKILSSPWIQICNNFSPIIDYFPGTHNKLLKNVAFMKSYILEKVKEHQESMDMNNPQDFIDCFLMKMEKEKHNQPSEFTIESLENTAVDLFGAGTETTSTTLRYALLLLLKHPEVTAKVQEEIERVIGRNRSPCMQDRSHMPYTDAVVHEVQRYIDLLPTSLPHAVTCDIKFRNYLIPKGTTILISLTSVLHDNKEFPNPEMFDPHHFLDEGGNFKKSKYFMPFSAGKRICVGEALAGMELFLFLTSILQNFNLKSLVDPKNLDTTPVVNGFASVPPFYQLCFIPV

[8] = molecular target: T2, CYP2C19 (Homo sapiens, UniProt P33261); assay: CYP inhibition in pooled human liver microsomes; type: in vitro ADME
T2 construct: from tissue; host or cells: pooled human liver microsomes
T2 sequence (P33261 whole entry): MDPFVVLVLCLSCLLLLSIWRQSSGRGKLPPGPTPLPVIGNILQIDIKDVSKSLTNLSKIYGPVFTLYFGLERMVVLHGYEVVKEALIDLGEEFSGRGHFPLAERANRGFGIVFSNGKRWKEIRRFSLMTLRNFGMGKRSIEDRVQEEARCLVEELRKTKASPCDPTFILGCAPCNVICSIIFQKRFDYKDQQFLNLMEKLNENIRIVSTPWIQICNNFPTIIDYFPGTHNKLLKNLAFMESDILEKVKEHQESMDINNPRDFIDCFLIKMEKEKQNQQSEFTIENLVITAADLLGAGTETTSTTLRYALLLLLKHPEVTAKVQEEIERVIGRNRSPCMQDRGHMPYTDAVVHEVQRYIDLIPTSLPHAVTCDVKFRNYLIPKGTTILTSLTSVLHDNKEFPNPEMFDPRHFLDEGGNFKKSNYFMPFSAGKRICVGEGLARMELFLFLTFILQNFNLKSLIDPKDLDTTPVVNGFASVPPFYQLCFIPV

[9] = Pharmacokinetics of BC-4 and BC-5 in mouse plasma and brain; type: in vivo; settings: Balb/c mice, single oral dose 5 mg/kg; for Cmax: read-out: Cmax; for Tmax: read-out: Tmax (converted); for half-life: read-out: T½
Experimental: Pharmacokinetics of BC-4 and BC-5 were compared to BC-1. Pharmacokinetics were assessed in Balb/c mice administered a single oral dose of 5 mg/kg of the indicated compound (Tables 11 and 12).

[10] = tested on: U87; assay: GBM cell viability, Alamar blue, 72 hours; type: cell-based; settings: Homo sapiens, U-87 MG, U87, established glioma cell line
Experimental: (§1) The effect of VMY-BC-1 was tested on a panel of GBM cell lines. […] In this study 100 μM was the highest drug concentration used, with 3-fold dilution for a 10 dose response curve.

[11] = tested on: U251; assay: GBM cell viability, Alamar blue, 72 hours; type: cell-based; settings: Homo sapiens, U-251, U251, established glioma cell line
Experimental: as §1

[12] = tested on: GL261; assay: GBM cell viability, Alamar blue, 72 hours; type: cell-based; settings: Mus musculus, GL261, established glioma cell line
Experimental: as §1

[13] = tested on: GBM4; assay: GBM cell viability, Alamar blue, 72 hours; type: cell-based; settings: GBM4, patient-derived cell line
Experimental: as §1

[14] = tested on: GBM8; assay: GBM cell viability, Alamar blue, 72 hours; type: cell-based; settings: GBM8, patient-derived cell line
Experimental: as §1

[15] = mouse, brain, read-out: Brain level, Mean (4) ± SE
[16] = mouse, plasma, read-out: Plasma level, Mean (4) ± SE

For `COc1ccc(/C=C/c2cc(OC)cc(B(O)O)c2)cc1` [VMY-BC-1], the “Stability in simulated intestinal fluid” value [1] was 97.24% remaining, the “Stability in simulated intestinal fluid (words)” value [1] was “stable” and the “Bound (%)” value ([2]; Mouse Brain Homogenate) was 30.08%. For the same compound, the fraction unbound ([2]; Mouse Brain Homogenate) was 0.699, the recovery ([2]; mouse, mouse brain homogenate) was 108% and the “Autophagy proteins and phosphorylation of ULK1 and LC3 A/B (Western blot)” value [3] was “increasing amounts of autophagy proteins over time as well as increased phosphorylation of ULK1 and LC3 A/B”. For the same compound, the “Pathways altered (Ingenuity Pathway Analysis)” value [4] was “activation of apoptosis, autophagy, and DNA damage pathways, and inhibition of mTOR1, PI3K, and AKT pathways”, the Body weight ([5]; 75 mg/kg PO daily for 14 days) was “without any apparent change in body weight” and the Tumor growth inhibition ([5]; 75 mg/kg PO daily for 14 days) was “approximately 30%”. For the same compound, the “Apoptosis by TUNEL staining” value ([5]; tumor tissue, 75 mg/kg PO) was “significant increase in apoptosis”, the “Reduction in Ki67 proliferation marker vs control” value ([5]; tumor tissue, 75 mg/kg PO) was 50% and the “Phospho-ULK1 and LC3 protein expression in tumors” value ([5]; tumor tissue, 24 hours after treatment) was “upregulated”. The AUC(0-inf) [6] was 0.865 µg·h/mL, the “AUC(inf)” value [6] was 149000 ng·min/mL and the Cmax [6] was 578 ng/mL and 1560 ng/g. The “Concentration in brain vs plasma” value [6] was “higher concentration in brain than in plasma”, the Tmax [6] was 30 min and the concentration at 30 min [6] was 578 ng/mL and 1560 ng/g. For the same compound, the concentration at 60 min [6] was 470 ng/mL and 1400 ng/g, the concentration at 180 min [6] was 60 ng/mL and 169 ng/g and the Tmax ([6]; Tmax) was 30 min. The half-life ([6]; T½) was 44 min, the IC50 [7] was 78.4 µM and the IC50 [8] was 95.7 µM. For the same compound, the “Brain level, Mean (4) ± SE” value ([9]; 0 min) was “BQL”, the “Plasma level, Mean (4) ± SE” value ([9]; 0 min) was “BQL” and the “Brain level, Mean (4) ± SE” value ([9]; 360 min) was “BQL”. The “Plasma level, Mean (4) ± SE” value ([9]; 360 min) was “BQL”, the “Brain level, Mean (4) ± SE” value ([9]; 900 min) was “BQL” and the “Plasma level, Mean (4) ± SE” value ([9]; 900 min) was “BQL”. For the same compound, the “Brain level, Mean (4) ± SE” value ([9]; 1440 min) was “BQL”, the “Plasma level, Mean (4) ± SE” value ([9]; 1440 min) was “BQL” and the “terminal elimination rate constant (lambda z)” value ([9]; Brain) was 0.0156 min⁻¹. The “terminal elimination rate constant (lambda z)” value ([9]; Plasma) was 0.0157 min⁻¹, the concentration at 30 min [9, 15] was 1560 ± 237 ng/g and the concentration at 60 min [9, 15] was 1400 ± 211 ng/g. It also gave a concentration at 180 min [9, 15] of 169 ± 58 ng/g, a concentration at 30 min [9, 16] of 0.578 ± 0.055 µg/mL and a concentration at 60 min [9, 16] of 0.47 ± 0.061 µg/mL. For the same compound, the concentration at 180 min [9, 16] was 0.06 ± 0.048 µg/mL, the Cmax ([9]; mouse, Brain) was 1560 ng/g and the Tmax ([9]; mouse, Brain) was 30 min. For the same compound, the half-life ([9]; mouse, Brain) was 44.3 min, the AUC(0-inf) ([9]; mouse, Plasma) was 0.865 µg·h/mL and the AUC(0-t) ([9]; mouse, Plasma, read-out: AUC(0-t) (converted)) was 0.803 µg·h/mL. For the same compound, the Cmax ([9]; mouse, Plasma) was 0.578 µg/mL, the Tmax ([9]; mouse, Plasma) was 30 min and the half-life ([9]; mouse, Plasma) was 44 min. It also gave an IC50 [10] of 5.88 µM, an IC50 [11] of 3.98 µM and an IC50 [12] of 4.2 µM. For the same compound, the IC50 [13] was 11 µM and the IC50 [14] was 9.28 µM.
